Like-named read-outs stand apart in the source and are kept apart here.
Columns and labels:
Nae I [1] = molecular target: T1, Nae I (Lentzea aerocolonigenes, UniProt P50187); test: Activation of Nae I cleavage of M13mp18 RFI DNA; format: biochemical, Nocardia aerocolonigenes; parameters: key to Activation of Nae I cleavage of M13mp18 RF1 DNA: ++++: full activation; ++: about 50% activation; -: no activation
T1 sequence (P50187 1-317): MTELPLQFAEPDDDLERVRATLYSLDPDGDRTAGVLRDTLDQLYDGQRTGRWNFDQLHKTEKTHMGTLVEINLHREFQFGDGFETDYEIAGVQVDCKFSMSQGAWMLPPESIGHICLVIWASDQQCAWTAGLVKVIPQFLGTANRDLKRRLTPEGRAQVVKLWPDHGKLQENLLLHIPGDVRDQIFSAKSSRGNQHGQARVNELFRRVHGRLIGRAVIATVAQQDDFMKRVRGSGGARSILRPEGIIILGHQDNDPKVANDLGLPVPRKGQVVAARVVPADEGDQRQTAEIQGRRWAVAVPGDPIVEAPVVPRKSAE

Nae I [2] = molecular target: T1, Nae I; settings: 2 mM spermidine, SV40 DNA 2.9 nM, 1.1 units Nae I, 1 hour 37° C.
Nae I [3] = molecular target: T1, Nae I; test: biochemical; settings: 1 h, read-out: Increase in Nae I cleavage of SV40 slow site

NCCCCNCCCN [spermidine]
Spermidine concentration needed to mimic the effect of 1 mM at low salt (Nae I [1]; 1 mM Mg2+ and 50 mM Na+): 6 mM
Spermidine concentration at which the switch occurs (inhibition in presence of activating DNA) (Nae I [1]; 50 mM NaCl and 10 mM MgCl2): 8 mM
Spermidine concentration at which the switch occurs (inhibition in presence of activating DNA) (Nae I [1]; low salt concentration): 1 mM
Effect on cleavage of resistant Nae I sites such as in M13mp18 DNA (Nae I [1]; spermidine at 1 mM, low salt): greatly activated
Spermidine concentration that switches on Nae I cleavage of resistant sites (Nae I [1]; spermidine by itself, low salt conditions): about 1 mM
Nae I cleavage of SV40 slow site (Nae I [2]): 17%
fold induction at 2000 µM (Nae I [3]): 40

CTGGTGGTGGGCGCCGGC (chemistry not given here) [Oligonucleotide duplex 5]
Activation of Nae I cleavage of M13mp18 RF1 DNA (Nae I [1]): -

GCCGGC (chemistry not given here) [Oligonucleotide duplex 7]
Activation of Nae I cleavage of M13mp18 RF1 DNA (Nae I [1]; compared to cleavage caused by an equal concentration of pBR322 Nae I sites): -

GCCGGCGGTGTGGGCAGCTGGTG (chemistry not given here) [Oligonucleotide duplex 6]
Activation of Nae I cleavage of M13mp18 RF1 DNA (Nae I [1]): -

GCGCCGGCGG (chemistry not given here) [Oligonucleotide duplex 4]
Activation of Nae I cleavage of M13mp18 RF1 DNA (Nae I [1]): -

GGGCGCCGGCGGTG (chemistry not given here) [Oligonucleotide duplex 3]
Activation of Nae I cleavage of M13mp18 RF1 DNA (Nae I [1]): ++ (key: ++++: full activation; ++: about 50% activation; -: no activation)

GGGTGCCGGCAGGG (chemistry not given here) [SEQ ID NO: 8]
Activation as activating sequence for Nae I (Nae I [1]; procedures of Example 1): 100%

TGGTGGGCGCCGGCGGTGTGGGCA (TTGGTGGGCGCCGGCGGTGTGGGCA; chemistry not given here) [Oligonucleotide duplex 2]
Activation of Nae I cleavage of M13mp18 RF1 DNA (Nae I [1]): ++++

Reference: patent publication US5418150A, “Method of cleaving DNA” (priority 1993, dated 1995)
